ChEMBL document CHEMBL1201862, “PubChem BioAssay data set” (2004)
Active and inactive are the calls of the source.

How the values were obtained:
[1] = target: Nucleotide-binding oligomerization domain-containing protein 2 (Homo sapiens, UniProt Q9HC29); assay: PubChem AID 2334; assay type: functional
[2] = target: T1, Nucleotide-binding oligomerization domain-containing protein 1 (Homo sapiens, UniProt Q9Y239); assay: blockers of NOD1 pathway activity – revised, SAR follow-up (AID 2333); assay type: functional
T1 sequence (Q9Y239 whole entry): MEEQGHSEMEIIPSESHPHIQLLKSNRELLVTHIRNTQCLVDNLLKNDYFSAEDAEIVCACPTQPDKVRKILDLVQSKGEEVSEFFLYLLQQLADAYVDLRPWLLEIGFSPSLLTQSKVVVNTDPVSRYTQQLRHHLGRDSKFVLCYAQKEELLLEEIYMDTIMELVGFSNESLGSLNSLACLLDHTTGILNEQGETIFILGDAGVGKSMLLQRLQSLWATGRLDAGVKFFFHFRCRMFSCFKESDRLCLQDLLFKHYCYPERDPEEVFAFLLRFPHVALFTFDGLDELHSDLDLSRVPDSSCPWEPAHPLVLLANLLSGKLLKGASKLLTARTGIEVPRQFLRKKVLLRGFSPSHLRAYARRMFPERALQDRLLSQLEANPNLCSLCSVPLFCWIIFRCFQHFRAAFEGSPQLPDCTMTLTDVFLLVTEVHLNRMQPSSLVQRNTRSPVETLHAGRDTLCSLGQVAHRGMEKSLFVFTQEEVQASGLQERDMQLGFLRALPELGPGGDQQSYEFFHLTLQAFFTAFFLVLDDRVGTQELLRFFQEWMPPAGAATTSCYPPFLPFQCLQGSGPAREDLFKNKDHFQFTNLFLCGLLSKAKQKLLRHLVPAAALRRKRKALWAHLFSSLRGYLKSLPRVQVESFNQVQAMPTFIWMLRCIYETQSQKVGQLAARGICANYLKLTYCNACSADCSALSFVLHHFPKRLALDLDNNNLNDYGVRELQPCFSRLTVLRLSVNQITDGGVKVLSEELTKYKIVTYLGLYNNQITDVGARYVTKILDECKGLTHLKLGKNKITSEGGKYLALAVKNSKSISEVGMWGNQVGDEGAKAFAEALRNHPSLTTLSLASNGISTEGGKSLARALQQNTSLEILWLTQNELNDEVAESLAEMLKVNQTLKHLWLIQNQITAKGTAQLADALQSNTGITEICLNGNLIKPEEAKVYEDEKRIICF

HEK293 = assay: cells; conditions: Homo sapiens;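 also: cells exposed to compound for 14 hours overnight before viability readout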
Tumor necrosis factor = Tumor necrosis factor (Homo sapiens, UniProt P01375); assay: analog potency on TNFa NF-kB signaling – cell-based, revised, SAR follow-up (AID 2337); assay type: functional
Cytochrome P450 2C9 = Cytochrome P450 2C9 (Homo sapiens, UniProt P11712)
Cytochrome P450 2D6 = Cytochrome P450 2D6 (Homo sapiens, UniProt P10635);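 also: CYP2D6 member of a cytochrome P450 panel assay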
[3] = Luminescence Cell-Based Dose Response HTS to Identify Inhibitors of 5'UTR Stem-Loop Driven Prion Protein mRNA Translation in H4 Neuroglioblastoma Cells. [Related pubchem assays: 1827 (Project Summary), 1813 (Primary HTS)]; assay type: functional
[4] = NIH3T3 cell viability loss – ATP luminescence, mouse fibroblasts, counter-screen, dose response (AID 2010); assay type: functional, cell-based;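 also: cells exposed to compound for about 90 hours before reading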
cells [5] = assay type: functional, cell-based
Exodeoxyribonuclease V = target: T2, Exodeoxyribonuclease V (Escherichia coli (strain K12), UniProt P04993+P07648+P08394); assay: RecBCD inhibition via phage-restricted bacterial growth – absorbance, V66 E. coli, mutant T4 phage, counter-screen for AddAB inhibitor project, dose response (AID 492957); assay type: functional, cell-based, Escherichia coli str. K-12 substr. MG1655
T2 sequence (P04993 whole entry): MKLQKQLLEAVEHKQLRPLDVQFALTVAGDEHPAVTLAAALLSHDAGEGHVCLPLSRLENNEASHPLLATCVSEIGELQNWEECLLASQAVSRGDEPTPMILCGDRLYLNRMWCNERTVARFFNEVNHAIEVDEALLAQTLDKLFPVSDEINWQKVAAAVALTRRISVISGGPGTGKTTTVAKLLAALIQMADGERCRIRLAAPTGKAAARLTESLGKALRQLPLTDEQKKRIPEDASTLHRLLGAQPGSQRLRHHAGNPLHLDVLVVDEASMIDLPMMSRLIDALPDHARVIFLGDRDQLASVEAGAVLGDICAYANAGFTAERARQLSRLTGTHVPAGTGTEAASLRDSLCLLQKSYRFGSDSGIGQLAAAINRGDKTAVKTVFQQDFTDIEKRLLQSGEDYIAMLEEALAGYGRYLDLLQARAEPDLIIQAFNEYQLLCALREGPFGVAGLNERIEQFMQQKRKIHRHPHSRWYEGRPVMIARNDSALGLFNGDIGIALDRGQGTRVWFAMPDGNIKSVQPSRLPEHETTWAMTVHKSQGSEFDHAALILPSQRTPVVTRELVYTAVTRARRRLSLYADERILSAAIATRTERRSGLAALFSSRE
T2 sequence (P07648 whole entry): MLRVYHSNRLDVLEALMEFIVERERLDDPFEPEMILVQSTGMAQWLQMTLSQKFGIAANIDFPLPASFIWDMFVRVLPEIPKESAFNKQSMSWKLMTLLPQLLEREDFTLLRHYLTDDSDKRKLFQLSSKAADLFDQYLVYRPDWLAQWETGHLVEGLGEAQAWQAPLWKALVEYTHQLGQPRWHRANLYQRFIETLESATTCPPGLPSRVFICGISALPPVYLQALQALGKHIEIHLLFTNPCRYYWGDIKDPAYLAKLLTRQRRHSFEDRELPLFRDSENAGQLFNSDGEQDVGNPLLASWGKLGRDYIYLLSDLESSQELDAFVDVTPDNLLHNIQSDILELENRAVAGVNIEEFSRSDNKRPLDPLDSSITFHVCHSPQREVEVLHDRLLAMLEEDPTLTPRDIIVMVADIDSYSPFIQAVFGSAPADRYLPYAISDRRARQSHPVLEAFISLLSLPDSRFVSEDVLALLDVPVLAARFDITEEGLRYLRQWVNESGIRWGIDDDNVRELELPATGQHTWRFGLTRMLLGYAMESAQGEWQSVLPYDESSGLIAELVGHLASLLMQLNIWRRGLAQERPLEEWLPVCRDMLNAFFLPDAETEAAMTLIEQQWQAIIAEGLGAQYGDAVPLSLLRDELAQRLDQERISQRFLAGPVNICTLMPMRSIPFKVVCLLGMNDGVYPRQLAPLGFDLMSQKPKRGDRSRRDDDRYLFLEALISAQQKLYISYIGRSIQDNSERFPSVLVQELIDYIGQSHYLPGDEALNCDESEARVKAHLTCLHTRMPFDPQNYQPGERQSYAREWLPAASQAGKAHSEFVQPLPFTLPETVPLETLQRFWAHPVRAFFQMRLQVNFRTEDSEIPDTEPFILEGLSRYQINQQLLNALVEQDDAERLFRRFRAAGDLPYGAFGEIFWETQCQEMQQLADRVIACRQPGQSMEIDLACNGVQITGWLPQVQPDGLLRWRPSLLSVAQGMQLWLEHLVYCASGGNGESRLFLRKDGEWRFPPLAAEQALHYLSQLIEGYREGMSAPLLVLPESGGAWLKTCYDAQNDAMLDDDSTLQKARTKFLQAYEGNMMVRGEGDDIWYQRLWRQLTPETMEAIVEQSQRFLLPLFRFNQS
T2 sequence (P08394 whole entry): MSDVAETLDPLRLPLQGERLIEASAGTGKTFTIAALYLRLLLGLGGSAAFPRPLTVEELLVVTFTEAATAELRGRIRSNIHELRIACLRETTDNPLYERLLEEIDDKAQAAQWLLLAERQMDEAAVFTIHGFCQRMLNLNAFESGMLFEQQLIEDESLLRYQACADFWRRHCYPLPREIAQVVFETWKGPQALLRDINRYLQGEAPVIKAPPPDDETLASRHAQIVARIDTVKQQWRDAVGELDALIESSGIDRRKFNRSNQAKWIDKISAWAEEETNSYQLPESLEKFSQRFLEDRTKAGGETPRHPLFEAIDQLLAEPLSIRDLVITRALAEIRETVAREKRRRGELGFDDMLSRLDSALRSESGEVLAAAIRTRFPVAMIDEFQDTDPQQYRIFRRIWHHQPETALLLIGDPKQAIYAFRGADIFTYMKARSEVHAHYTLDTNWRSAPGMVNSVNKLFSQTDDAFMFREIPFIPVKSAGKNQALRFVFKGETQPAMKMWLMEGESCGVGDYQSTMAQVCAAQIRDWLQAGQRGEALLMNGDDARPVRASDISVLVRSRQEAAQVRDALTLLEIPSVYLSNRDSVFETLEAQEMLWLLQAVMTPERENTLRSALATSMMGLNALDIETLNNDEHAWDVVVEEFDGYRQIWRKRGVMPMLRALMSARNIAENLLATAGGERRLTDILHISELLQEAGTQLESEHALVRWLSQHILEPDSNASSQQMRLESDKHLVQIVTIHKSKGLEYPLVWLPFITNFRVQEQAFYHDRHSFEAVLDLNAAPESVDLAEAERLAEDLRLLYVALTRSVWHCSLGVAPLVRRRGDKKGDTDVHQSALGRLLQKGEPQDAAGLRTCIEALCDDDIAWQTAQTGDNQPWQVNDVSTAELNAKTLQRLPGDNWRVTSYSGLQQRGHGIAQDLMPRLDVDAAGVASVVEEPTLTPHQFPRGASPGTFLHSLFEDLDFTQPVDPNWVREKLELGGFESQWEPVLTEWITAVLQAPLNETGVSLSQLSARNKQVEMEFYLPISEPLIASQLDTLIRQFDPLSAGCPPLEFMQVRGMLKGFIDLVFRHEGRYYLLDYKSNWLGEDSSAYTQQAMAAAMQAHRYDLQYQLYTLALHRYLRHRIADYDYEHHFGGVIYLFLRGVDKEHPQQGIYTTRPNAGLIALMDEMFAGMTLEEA

[6] = alpha-synuclein stem-loop luciferase translation blockers – H4 neuroglioma cells, luminescence, confirmation (AID 1988); assay type: functional, cell-based
cells [7] = assay type: functional, cell-based; remark: listed apart in the source
INS1 = assay: INS-1E survival protection against cytokine death – cell-based, luminescence, retest, dose response (AID 449756); assay type: functional; conditions: Rattus norvegicus;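 also: cell death triggered by IL-1 beta plus TNF-alpha plus IFN-gamma mixture; protective hits raise ATP signal compared with cytokine alone wells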
[8] = NIH-3T3 fibroblast cytotoxicity, dose response, cytotoxicity control, cell-based, fluorescence, Alamar Blue, secondary assay (AID 2327); assay type: functional;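 also: NIH-3T3 mouse fibroblasts cultured with fluconazole at 8 µg/mL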
[9] = Counterscreen for AddAB inhibitors: absorbance-based bacterial cell-based high throughput dose response assay for inhibitors of bacterial viability. [Related pubchem assays (depositor defined):AID435030, AID449728, AID449731, AID488942, AID488955, AID488956]; assay type: functional
[10] = Trypanosoma cruzi growth suppression in host cells – NIH3T3 host cells, beta-gal luminescence, confirmation (AID 2044); assay type: functional, cell-based;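 also: intracellular parasites grown in NIH/3T3 mouse fibroblasts as host cells; luminescent beta-galactosidase reporter signal from transgenic T. cruzi replicating inside host cells; inhibitors lower the luminescence signal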
[11] = luciferase reporter signal suppression in cells – H4 neuroglioma cells, luminescence, dose response (AID 1990); assay type: functional, cell-based
cells [12] = assay type: functional
[13] = Vero E6 cell cytotoxicity, dose response, cytotoxicity control for non-replicating M. tuberculosis project, secondary assay (AID 492998); assay type: functional, VeroE6; conditions: Vero C1008
[14] = HepG2 cell cytotoxicity, dose response, cytotoxicity control for non-replicating M. tuberculosis project (AID 489018); assay type: functional; conditions: Mycobacterium tuberculosis
[15] = THP-1 cell cytotoxicity, dose response, cytotoxicity control for non-replicating M. tuberculosis project (AID 489025); assay type: functional
SUMO-activating enzyme = SUMO-activating enzyme (Homo sapiens, UniProt Q9UBT2); assay: blockers of UBC9-mediated SUMO conjugation – biochemical, AlphaScreen, SUMOylation inhibitor project, confirmation (AID 2018); assay type: functional
SUMO-activating enzyme, sequence (Q9UBE0 whole entry): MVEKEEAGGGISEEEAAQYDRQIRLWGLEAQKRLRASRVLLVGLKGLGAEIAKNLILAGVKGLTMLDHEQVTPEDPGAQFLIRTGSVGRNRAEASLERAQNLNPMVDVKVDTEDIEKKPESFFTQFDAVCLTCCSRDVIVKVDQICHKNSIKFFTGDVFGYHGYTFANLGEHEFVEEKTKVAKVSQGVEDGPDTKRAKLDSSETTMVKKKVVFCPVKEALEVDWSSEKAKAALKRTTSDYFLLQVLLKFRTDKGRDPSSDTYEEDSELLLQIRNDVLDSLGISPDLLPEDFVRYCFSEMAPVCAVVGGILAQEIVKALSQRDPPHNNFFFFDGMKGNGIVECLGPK
SUMO-activating enzyme, sequence (Q9UBT2 whole entry): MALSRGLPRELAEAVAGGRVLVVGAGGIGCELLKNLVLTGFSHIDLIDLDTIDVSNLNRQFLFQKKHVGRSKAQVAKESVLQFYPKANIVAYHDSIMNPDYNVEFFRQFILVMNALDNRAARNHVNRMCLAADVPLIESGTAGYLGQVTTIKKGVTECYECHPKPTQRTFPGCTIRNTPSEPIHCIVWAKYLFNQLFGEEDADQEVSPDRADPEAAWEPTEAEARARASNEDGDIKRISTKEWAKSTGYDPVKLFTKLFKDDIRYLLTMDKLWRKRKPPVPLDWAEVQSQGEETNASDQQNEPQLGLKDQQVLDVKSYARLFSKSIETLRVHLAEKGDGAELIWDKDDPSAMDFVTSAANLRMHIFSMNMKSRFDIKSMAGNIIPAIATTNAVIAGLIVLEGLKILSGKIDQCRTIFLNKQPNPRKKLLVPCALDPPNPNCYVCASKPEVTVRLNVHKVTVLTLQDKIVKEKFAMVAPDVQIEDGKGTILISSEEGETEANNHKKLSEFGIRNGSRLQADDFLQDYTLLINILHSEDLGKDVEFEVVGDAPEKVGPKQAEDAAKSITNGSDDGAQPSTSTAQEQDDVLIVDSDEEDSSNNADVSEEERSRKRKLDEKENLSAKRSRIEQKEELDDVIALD

Nucleotide-binding oligomerization domain-containing protein 2, sequence (Q9HC29 whole entry, the tested form may be a part): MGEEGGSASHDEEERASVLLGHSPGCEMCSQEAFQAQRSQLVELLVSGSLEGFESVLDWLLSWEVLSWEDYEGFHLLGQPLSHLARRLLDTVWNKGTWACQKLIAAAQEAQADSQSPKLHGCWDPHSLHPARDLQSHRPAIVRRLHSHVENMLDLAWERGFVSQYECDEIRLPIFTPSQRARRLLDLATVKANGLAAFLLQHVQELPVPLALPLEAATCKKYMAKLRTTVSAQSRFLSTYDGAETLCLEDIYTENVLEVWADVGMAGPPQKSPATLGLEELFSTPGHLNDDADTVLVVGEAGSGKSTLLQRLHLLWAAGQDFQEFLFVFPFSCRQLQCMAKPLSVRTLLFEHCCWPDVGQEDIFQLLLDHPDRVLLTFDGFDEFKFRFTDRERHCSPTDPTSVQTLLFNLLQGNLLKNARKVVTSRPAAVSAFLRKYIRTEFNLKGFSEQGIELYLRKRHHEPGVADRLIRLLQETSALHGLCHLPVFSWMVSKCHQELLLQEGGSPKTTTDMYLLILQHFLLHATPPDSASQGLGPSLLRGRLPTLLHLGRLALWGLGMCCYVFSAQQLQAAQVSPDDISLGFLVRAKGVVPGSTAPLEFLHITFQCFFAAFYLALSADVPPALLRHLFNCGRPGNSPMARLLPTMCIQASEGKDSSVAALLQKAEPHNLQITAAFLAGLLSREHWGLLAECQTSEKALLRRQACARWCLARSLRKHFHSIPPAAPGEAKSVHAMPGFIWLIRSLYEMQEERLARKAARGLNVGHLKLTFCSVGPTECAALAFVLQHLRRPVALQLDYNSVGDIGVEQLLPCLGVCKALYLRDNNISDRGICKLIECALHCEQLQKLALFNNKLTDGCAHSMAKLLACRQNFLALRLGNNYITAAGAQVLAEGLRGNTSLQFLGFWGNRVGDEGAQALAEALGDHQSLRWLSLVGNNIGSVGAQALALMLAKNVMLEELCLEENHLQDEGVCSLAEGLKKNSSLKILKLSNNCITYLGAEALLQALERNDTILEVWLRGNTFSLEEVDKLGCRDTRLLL
Cytochrome P450 2C9, sequence (P11712 whole entry): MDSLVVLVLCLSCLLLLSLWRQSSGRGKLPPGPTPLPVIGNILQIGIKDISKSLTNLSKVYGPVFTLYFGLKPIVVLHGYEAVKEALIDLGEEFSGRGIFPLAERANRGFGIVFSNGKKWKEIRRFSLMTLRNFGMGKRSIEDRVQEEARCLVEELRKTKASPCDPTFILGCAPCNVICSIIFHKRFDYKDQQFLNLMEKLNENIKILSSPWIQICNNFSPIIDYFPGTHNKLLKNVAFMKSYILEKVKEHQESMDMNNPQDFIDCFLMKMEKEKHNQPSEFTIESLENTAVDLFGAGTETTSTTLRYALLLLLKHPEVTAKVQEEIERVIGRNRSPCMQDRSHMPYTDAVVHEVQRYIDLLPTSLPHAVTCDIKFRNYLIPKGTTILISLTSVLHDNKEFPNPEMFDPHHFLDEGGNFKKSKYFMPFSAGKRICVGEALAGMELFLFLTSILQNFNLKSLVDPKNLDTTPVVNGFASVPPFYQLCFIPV
Tumor necrosis factor, sequence (P01375 whole entry): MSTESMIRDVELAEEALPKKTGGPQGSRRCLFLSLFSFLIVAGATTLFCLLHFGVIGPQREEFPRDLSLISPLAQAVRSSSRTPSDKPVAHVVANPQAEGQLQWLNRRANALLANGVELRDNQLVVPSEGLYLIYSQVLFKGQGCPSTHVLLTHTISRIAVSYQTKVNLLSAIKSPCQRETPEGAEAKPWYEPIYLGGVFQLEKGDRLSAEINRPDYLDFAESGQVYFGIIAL
Cytochrome P450 2D6, sequence (P10635 whole entry): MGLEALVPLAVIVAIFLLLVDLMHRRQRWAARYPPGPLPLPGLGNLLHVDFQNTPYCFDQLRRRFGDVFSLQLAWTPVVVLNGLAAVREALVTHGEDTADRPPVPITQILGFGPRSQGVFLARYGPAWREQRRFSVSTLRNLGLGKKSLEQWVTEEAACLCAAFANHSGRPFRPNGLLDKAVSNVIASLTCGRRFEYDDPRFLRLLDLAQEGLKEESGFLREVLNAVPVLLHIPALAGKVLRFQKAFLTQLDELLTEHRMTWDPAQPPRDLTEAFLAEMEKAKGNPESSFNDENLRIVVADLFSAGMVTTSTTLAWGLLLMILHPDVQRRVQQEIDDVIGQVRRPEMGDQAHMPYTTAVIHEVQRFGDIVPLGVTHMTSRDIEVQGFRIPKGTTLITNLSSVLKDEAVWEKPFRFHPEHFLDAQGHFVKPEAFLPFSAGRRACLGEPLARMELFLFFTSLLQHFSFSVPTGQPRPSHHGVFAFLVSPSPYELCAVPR

SMILES: O=C(O)c1c(-n2cccc2)sc2c1CCCC2
- IC50 [1]: > 20 µM (inactive)
- IC50 [2]: > 20 µM (inactive)
- IC50 (HEK293): > 20 µM (inactive)
- IC50 (Tumor necrosis factor): > 20 µM (inactive)

SMILES: COc1cccc(-c2nc(N(C)C)c3ccccc3n2)c1
- AC50 (Cytochrome P450 2C9): inconclusive

SMILES: CN1CCCC2(CCN(C(=O)c3ccncc3)CC2)C1
- AC50 (Cytochrome P450 2D6): 7.94 µM (inconclusive)
- AC50 (Cytochrome P450 2C9): inconclusive

SMILES: COc1cccc(/C=N\NC(=O)c2ccc(Cn3cc(Br)c([N+](=O)[O-])n3)o2)c1O
- EC50 [3]: 20.2 µM (active)
- EC50 [4]: > 60 µM (not active)
- EC50 (cells [5]): 28.6 µM (active)
- IC50 (Exodeoxyribonuclease V): > 119 µM (inactive)
- EC50 [6]: 10.4 µM (active)
- EC50 (cells [7]): 51.1 µM (active)
- AC50 (INS1): 1.89 µM (active)
- EC50 [8]: > 150 µM (inactive)
- IC50 [9]: 31.8 µM (inactive)
- EC50 [10]: 1.09 µM (active)
- EC50 [11]: 26 µM (active)

SMILES: O=C(Nc1nc2ccccc2n1Cc1ccc(Cl)cc1)c1ccc(F)cc1
- IC50 [1]: > 20 µM (inactive)
- IC50 [2]: > 20 µM (inactive)
- IC50 (HEK293): > 20 µM (inactive)
- IC50 (Tumor necrosis factor): > 20 µM (inactive)

SMILES: CC(=O)Nc1nc2ccccc2n1Cc1ccccc1Cl
- IC50 [1]: > 20 µM (inactive)
- IC50 [2]: > 20 µM (inactive)
- IC50 (cells [12]): 4.15 µM (active)
- CC50 [13]: 15.5 µM (active)
- CC50 [14]: > 20 µM (active)
- CC50 [15]: 14.1 µM (active)
- IC50 (HEK293): > 20 µM (inactive)
- IC50 (Tumor necrosis factor): 19.9 µM (active)

SMILES: COc1cc(NC(=O)c2cncc(-c3ccc(C#N)cc3)c2)cc(C(=O)Nc2cccc(C(F)(F)F)c2)c1
- IC50 (SUMO-activating enzyme): 53.5 µM (active)

SMILES: O=C(Nc1nc2ccccc2n1Cc1ccc(Cl)cc1)C1CCCCC1
- IC50 [1]: > 20 µM (inactive)
- IC50 [2]: > 20 µM (inactive)
- IC50 (HEK293): > 20 µM (inactive)
- IC50 (Tumor necrosis factor): > 20 µM (inactive)

SMILES: N#C/C(=C(/O)COC(=O)CSc1ccc(Cl)cc1)c1nc2ccccc2[nH]1
- IC50 [1]: > 20 µM (inactive)
- IC50 [2]: > 20 µM (inactive)
- IC50 (HEK293): > 20 µM (inactive)
- IC50 (Tumor necrosis factor): > 20 µM (inactive)

SMILES: Cc1ccnc(NS(=O)(=O)c2ccc(N)cc2)n1 [SULFAMERAZINE]
- AC50 (Cytochrome P450 2C9): inconclusive

SMILES: NC(=O)CC(NC(=O)Cc1cccc2ccccc12)c1ccc(NCCc2ccccc2F)c([N+](=O)[O-])c1 (stereo not drawn)
- IC50 (SUMO-activating enzyme): 39 µM (active)

SMILES: COc1ccc(NC(=O)Cn2cc(C(=O)c3ccco3)c3ccccc32)cc1
- IC50 (Exodeoxyribonuclease V): > 119 µM (inactive)
- IC50 [9]: > 119 µM (inactive)
